Holding throughout (assay): NCI anticancer screen, dose series, 48 h
Experiment [1] relates to HOP-62 NSCLC.
For experiment [2], the system named is M14 melanoma.
Experiment [3] has as its system NCI-H522 lung.
Experiment [4] has as its system ACHN renal.
Experiment [5] relates to MCF7 breast.
Experiment [6] deals with NCI/ADR-RES ovarian.
The subject of experiment [7] is HCT-15 colon.
Experiment [8] relates to SF-268 CNS.

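Results reflect a 48-hour exposure of cells in 96-well plates to compound at five concentrations. GI50 marks 50% less growth. Definition used: TGI = concentration required for complete inhibition of growth.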

`O=C(NCc1cccs1)OC1CC2CCC1C2` (centres undefined): the TGI in experiment [1], in experiment [2], in experiment [3], in experiment [4], in experiment [5] and in experiment [6] was greater than 100 µM each time. Also, the TGI in experiment [7] and in experiment [8] was greater than 100 µM each time.

As to `O=C(Nc1ccc(O)c(NS(=O)(=O)c2ccc(F)cc2)c1)c1ccc(-c2ccccc2)cc1`, the GI50 in experiment [1] is 19.9 µM; in experiment [2], 7.32 µM; in experiment [3] it was 2.27 µM; in experiment [4], 6.3 µM; in experiment [5], 3.85 µM; in experiment [6] it was 5.67 µM. The GI50 in experiment [7] is 4.36 µM; in experiment [8], 6.49 µM. The TGI in experiment [1] amounted to 40.2 µM; in experiment [2], 21.6 µM; in experiment [3], 8.7 µM; in experiment [4], 25.7 µM; in experiment [5] it was 17.4 µM; in experiment [6], 20.7 µM. The TGI in experiment [7] was 17.3 µM; in experiment [8] it was 33.2 µM.

Take `Cc1csc(-c2ccc3c(c2)COC3(CCCN(C)C)c2ccc(F)cc2)c1` (centres undefined): the GI50 in experiment [1] was 1.67 µM; in experiment [2] it was 1.81 µM; in experiment [3] it was 2.06 µM; in experiment [4] it was 1.74 µM; in experiment [5], 1.7 µM; in experiment [6] it was 1.81 µM. For the same compound, the GI50 in experiment [7] was 1.85 µM; in experiment [8] it was 1.68 µM. Besides, the TGI turned out to be 3.42 µM in experiment [1]; 3.59 µM in experiment [2]; 4.31 µM in experiment [3]; 3.14 µM in experiment [4]; 3.38 µM in experiment [5]; 3.44 µM in experiment [6]. In addition, the TGI turned out to be 3.51 µM in experiment [7] and 3.26 µM in experiment [8].

For `COCO[C@@H]1CC2C=Nc3cc(OCc4ccccc4)c(OC)cc3C(=O)N2C1` (some centres undefined), the GI50 was 0.351 µM in experiment [1]; 0.42 µM in experiment [2]; 0.152 µM in experiment [3]; 0.338 µM in experiment [4]; 0.273 µM in experiment [5]; 0.703 µM in experiment [6]. Besides, the GI50 is 0.844 µM in experiment [7] and 0.646 µM in experiment [8]. Also, the TGI in experiment [1] was 2.8 µM; in experiment [2] it was 1.39 µM; in experiment [3], 0.64 µM; in experiment [4], 1.71 µM; in experiment [5] it was greater than 35.4 µM; in experiment [6] it was 6.39 µM. For the same compound, the TGI worked out at 6.56 µM in experiment [7] and 9.31 µM in experiment [8].

Take `COc1cc(/C=N/Nc2ncnc3c2cnn3Cc2ccccc2)ccc1O`: the GI50 in experiment [1] is 5.24 µM; in experiment [2] it was greater than 25 µM; in experiment [3] it was 5.37 µM; in experiment [4] it was 4.13 µM; in experiment [5] it was greater than 18 µM; in experiment [6], 7.35 µM. For the same compound, the results for the GI50 in experiment [7] and in experiment [8] were greater than 25 µM and 5.34 µM, respectively. Besides, the TGI is 11.8 µM in experiment [1]; greater than 25 µM in experiment [2]; greater than 22.8 µM in experiment [3]; greater than 25 µM in experiment [4]; greater than 25 µM in experiment [5]; greater than 25 µM in experiment [6]. In addition, the TGI in experiment [7] was greater than 25 µM; in experiment [8], 14.3 µM.

For the compound `O=C1C(Cl)=C(Nc2ccccn2)C(=O)c2ccccc21`, the GI50 in experiment [1] is 2.57 µM; in experiment [2] it was 2.07 µM; in experiment [3] it was 1.89 µM; in experiment [4] it was 3 µM; in experiment [5], 1.96 µM; in experiment [6], 3.23 µM. The GI50 in experiment [7] is 3.54 µM; in experiment [8], 2.74 µM. Further, the TGI in experiment [1] stood at 6.15 µM; in experiment [2], 3.84 µM; in experiment [3], 3.69 µM; in experiment [4] it was 9.93 µM; in experiment [5] it was 4.12 µM; in experiment [6] it was 17.2 µM. The TGI was greater than 100 µM in experiment [7] and 7.55 µM in experiment [8].

`CCCCC/C=C\C/C=C/CCCCCCCCNC(=O)Nc1ccc([N+](=O)[O-])cc1`: the GI50 is 40.8 µM in experiment [1]; 6.9 µM in experiment [2]; 11.5 µM in experiment [3]; 6.8 µM in experiment [4]; 23.7 µM in experiment [5]; 7.8 µM in experiment [6]. The GI50 in experiment [7] was 8.81 µM; in experiment [8], 38 µM. The TGI in experiment [1] was greater than 100 µM; in experiment [2] it was 77.5 µM; in experiment [3] it was greater than 100 µM; in experiment [4], greater than 100 µM; in experiment [5], greater than 100 µM; in experiment [6] it was greater than 100 µM. Further, the TGI in experiment [7] and in experiment [8] was greater than 100 µM in each case.

On to `O=C1CCCC(=O)C1C(=O)c1ccc(C(F)(F)F)cc1[N+](=O)[O-]`, for which the GI50 in experiment [1], in experiment [2], in experiment [3], in experiment [4], in experiment [5] and in experiment [6] was greater than 100 µM each time. In addition, the GI50 in experiment [7] and in experiment [8] was greater than 100 µM each time. The TGI in experiment [1], in experiment [2], in experiment [3], in experiment [4], in experiment [5] and in experiment [6] was greater than 100 µM throughout. Also, the TGI in experiment [7] and in experiment [8] was greater than 100 µM each time.

For the compound `CS(=O)(=O)N(CC(=O)O)Cc1ccccc1`, the TGI in experiment [1], in experiment [2], in experiment [3], in experiment [4], in experiment [5] and in experiment [6] was greater than 100 µM in each case. Further, the TGI in experiment [7] and in experiment [8] was greater than 100 µM each time.

For `COc1cc([N+](=O)[O-])c(OC)cc1-c1nc2n(c1/C(N)=N/C(=N)N)CCS2`, the GI50 was 6.23 µM in experiment [1]; greater than 100 µM in experiment [2]; 47.7 µM in experiment [3]; 12.3 µM in experiment [4]; greater than 100 µM in experiment [5]; greater than 100 µM in experiment [6]. In addition, the GI50 in experiment [7] was greater than 100 µM; in experiment [8] it was 45.8 µM. The TGI in experiment [1] is 50.6 µM; in experiment [2], greater than 100 µM; in experiment [3] it was greater than 100 µM; in experiment [4], greater than 100 µM; in experiment [5], greater than 100 µM; in experiment [6], greater than 100 µM. The TGI in experiment [7] and in experiment [8] was greater than 100 µM each time.

The values are drawn from PubChem BioAssay (NCI).
